From patent publication US7803801B2, “Aminopyridine compounds having Syk inhibitory activity” (Japan Tobacco, Inc., priority 2005, dated 2010)
pIC50: −log10 of the molar value. Counter-ions that a name gives are not always drawn. Like-named read-outs stand apart in the source and are kept apart here.

What was measured:
[1] = target: GST-Syk Full Protein (human) (Homo sapiens, UniProt P43405); test: Syk kinase inhibition test (HTRF method); assay type: biochemical
Outline: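 Human GST-Syk full-length (6.4 nM) phosphorylated biotin-EDPDYEWPSA-NH2 (250 nM) with 100 μM ATP in HEPES pH 7.0/MgCl2 buffer, 2% DMSO, 30 min at room temperature. EDTA stop, then HTRF detection (streptavidin-XL665, Eu anti-phosphotyrosine) after 1 h; 665/620 ratio read.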

[2] = test system: cultured human mast cells; test: Degranulation inhibition test using cultured human mast cells (IgE cross-linking, β-Hexosaminidase release); assay type: cell-based; details: Mast cell, cultured human mast cells, read-out: human degranulation ave. IC50
Outline: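 CD34+ cord-blood cells cultured ≥8 weeks with SCF/IL-6/IL-3; FcεRI primed 5 days with rhIL-4 (1 ng/mL) and hIgE (0.5 μg/mL). Compound (0.1% DMSO) preincubated 10 min at 37 °C, then anti-IgE (final 10 μg/mL) 30 min; released β-hexosaminidase read at 405 nm versus total lysate, IC50 (M).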

[3] = HTRF, 100 μM ATP, 30 min room temperature, average, read-out: sykHTRF ave IC50
[4] = anti-hIgE stimulation, β-Hexosaminidase index, average
[5] = Tables 2-x, thiophene compounds B, read-out: sykHTRK ave IC50
[6] = Tables 2-x, thiophene compounds B
[7] = Tables 1-x, compounds A, read-out: sykHTRF ave IC50

Structure (SMILES)	pIC50 [1, 3]	pIC50 [2, 4]	further results
CCOC(=O)c1nc([C@H](C)NC(C)=O)sc1-c1cccc(Nc2cc(C)ccn2)n1 [Compound A-102]	< 6.00	< 6.00	
C[C@H](O)c1ncc(-c2cccc(Nc3cc(Cl)ccn3)n2)s1 [Compound A-322, (S)-1-{5-[6-(4-chloropyridin-2-ylamino)pyridin-2-yl]thiazol-2-yl}ethanol]	> 7.00	> 7.00	
CC(=O)c1ccc(-c2cccc(Nc3nccc(C)c3[N+](=O)[O-])n2)s1 [Compound B-62]			pIC50 [1, 5]: < 6.00; pIC50 [2, 6]: < 6.00
CNC(=O)CN1CCN(c2ncc(-c3cccc(Nc4cc(C)ccn4)n3)s2)CC1=O [Compound A-466, N-methyl-2-(4-{5-[6-(4-methylpyridin-2-ylamino)pyridin-2-yl]thiazol-2-yl}-2-oxopiperazin-1-yl)acetamide]			pIC50 [1, 7]: > 7.00; pIC50 ([2]; Tables 1-x, compounds A): < 6.00
Cc1ccnc(Nc2cccc(-c3cnc(COCC(N)=O)s3)n2)c1 [Compound A-354]	6.00 to 7.00	6.00 to 7.00	
Cc1ccnc(Nc2cccc(-c3cnc(N(C)C[C@H]4CC[C@H](C(=O)O)CC4)s3)n2)c1 [Compound A-16, trans-4-[(N-methyl-N-{5-[6-(4-methylpyridin-2-ylamino)pyridin-2-yl]thiazol-2-yl}amino)methyl]cyclohexanecarboxylic acid]	> 7.00	6.00 to 7.00	
Cc1ccnc(Nc2cccc(-c3cnc(COCC(=O)N4CCNC(=O)C4)s3)n2)c1 [Compound A-370, 4-(2-{5-[6-(4-methylpyridin-2-ylamino)pyridin-2-yl]thiazol-2-ylmethoxy}acetyl)piperazin-2-one]	> 7.00	6.00 to 7.00	
Cc1ccnc(Nc2cccc(-c3cnc([C@H](Cc4ccccc4)NC(=O)OC(C)(C)C)s3)n2)c1 [Compound A-39]	< 6.00	< 6.00	
Cc1ccnc(Nc2cccc(-c3ccc(C(O)C(C)C)s3)n2)c1 (centres unmarked) [Compound B-45]			pIC50 [1, 5]: 6.00 to 7.00; pIC50 [2, 6]: < 6.00
CNC(=O)N1CCC(c2ncc(-c3cccc(Nc4cc(C)ccn4)n3)s2)CC1 [Compound A-359]	6.00 to 7.00	6.00 to 7.00	
CC(=O)N1C[C@H](OCc2ccccc2)C[C@H]1c1ncc(-c2cccc(Nc3cc(C)ccn3)n2)s1 [Compound A-90]	6.00 to 7.00	< 6.00	
Cc1ccnc(Nc2cccc(-c3cnc(CN4CCC(N)CC4)s3)n2)c1 [Compound A-197, 1-{5-[6-(4-methylpyridin-2-ylamino)pyridin-2-yl]thiazol-2-ylmethyl}piperidin-4-ylamine]	> 7.00	6.00 to 7.00	
Cc1ccnc(Nc2cccc(-c3cnc([C@H]4CC[C@H](C(=O)NCCN(C)C)CC4)s3)n2)c1 [Compound A-309, N-(2-dimethylaminoethyl)-trans-4-{5-[6-(4-methylpyridin-2-ylamino)pyridin-2-yl]thiazol-2-yl}cyclohexanecarboxamide]	> 7.00	6.00 to 7.00	
Cc1ccnc(Nc2cccc(-c3cnc(N(CC(=O)N(C)C)[C@H]4CC[C@H](C(=O)O)CC4)s3)n2)c1 [Compound A-602]			pIC50 [1, 7]: 6.00 to 7.00; pIC50 ([2]; Tables 1-x, compounds A): < 6.00
Cc1ccnc(Nc2cccc(-c3cnc(N4CCC[C@@H](C(=O)O)C4)s3)n2)c1 [Compound A-531, (R)-1-{5-[6-(4-methylpyridin-2-ylamino)pyridin-2-yl]thiazol-2-yl}piperidine-3-carboxylic acid]			pIC50 [1, 7]: > 7.00; pIC50 ([2]; Tables 1-x, compounds A): 6.00 to 7.00
CCC(=O)Nc1nc(C)c(-c2cccc(Nc3cc(C)ccn3)n2)s1 [Compound A-19, N-{4-methyl-5-[6-(4-methylpyridin-2-ylamino)pyridin-2-yl]thiazol-2-yl}propionamide]	> 7.00	6.00 to 7.00	
CCOC(=O)CCC(=O)N[C@@H](C)c1ncc(-c2cccc(Nc3cc(C)ccn3)n2)s1 [Compound A-120]	< 6.00	< 6.00	
COCCN(c1ncc(-c2cccc(Nc3cc(C)ccn3)n2)s1)C1CCN(C(C)=O)CC1 [Compound A-526, 1-[4-(N-(2-methoxyethyl)-N-{5-[6-(4-methylpyridin-2-ylamino)pyridin-2-yl]thiazol-2-yl}amino)piperidin-1-yl]ethanone]			pIC50 [1, 7]: > 7.00; pIC50 ([2]; Tables 1-x, compounds A): 6.00 to 7.00
CC(=O)N[C@@H](Cc1ccc(OCCO)cc1)c1ncc(-c2cccc(Nc3cc(C)ccn3)n2)s1 [Compound A-140]	6.00 to 7.00	< 6.00	
Cc1ccnc(Nc2cccc(-c3cnc(C4CCN(C(=O)c5ccc(O)cc5)CC4)s3)n2)c1 [Compound A-378]			pIC50 [1, 7]: 6.00 to 7.00; pIC50 ([2]; Tables 1-x, compounds A): 6.00 to 7.00
Cc1ccnc(Nc2cccc(-c3cnc(C(=O)NCC(C)O)s3)n2)c1 (centres unmarked) [Compound A-66]	6.00 to 7.00	< 6.00	
Cc1ccnc(Nc2cccc(-c3ccc(C(=O)O)s3)n2)c1 [Compound B-20]			pIC50 [1, 5]: 6.00 to 7.00; pIC50 [2, 6]: < 6.00

Structure (SMILES)	pIC50 [1, 3]	pIC50 [2, 4]	further results
COc1ccc(CCc2ncc(-c3cccc(Nc4cc(C)ccn4)n3)s2)cc1 [Compound A-137]	6.00 to 7.00	< 6.00	
CC(=O)N1CCC(N(c2ncc(-c3cccc(Nc4cc(C)ccn4)n3)s2)C(C)C)CC1 [Compound A-515, 1-[4-(N-isopropyl-N-{5-[6-(4-methylpyridin-2-ylamino)pyridin-2-yl]thiazol-2-yl}amino)piperidin-1-yl]ethanone]			pIC50 [1, 7]: > 7.00; pIC50 ([2]; Tables 1-x, compounds A): < 6.00
Cc1ccnc(Nc2cccc(-c3cnc(CCC4CCC(C(=O)O)CC4)s3)n2)c1 (centres unmarked) [Compound A-612, 4-(2-{5-[6-(4-methylpyridin-2-ylamino)pyridin-2-yl]thiazol-2-yl}ethyl)cyclohexanecarboxylic acid]			pIC50 [1, 7]: > 7.00; pIC50 ([2]; Tables 1-x, compounds A): < 6.00
Cc1ccnc(Nc2cccc(-c3cnc(CN4CCN(C(=O)CO)CC4)s3)n2)c1 [Compound A-246]	6.00 to 7.00	6.00 to 7.00	
CC(=O)c1ccc(-c2cccc(Nc3cc(C(N)=O)ccn3)n2)s1 [Compound B-65]			pIC50 [1, 5]: 6.00 to 7.00; pIC50 [2, 6]: < 6.00
Cc1ccnc(Nc2cccc(-c3cnc(CCc4ccc(NC(=O)CO)cc4)s3)n2)c1 [Compound A-237, 2-hydroxy-N-[4-(2-{5-[6-(4-methylpyridin-2-ylamino)pyridin-2-yl]thiazol-2-yl}ethyl)phenyl]acetamide]	> 7.00	6.00 to 7.00	
Cc1ccnc(Nc2cccc(-c3cnc(C4CCCC(C(=O)O)C4)s3)n2)c1 (centres unmarked) [Compound A-270]	6.00 to 7.00	< 6.00	
Cc1ccnc(Nc2cccc(-c3cnc(C4CCN(C(=O)CC(=O)O)CC4)s3)n2)c1 [Compound A-192, 3-(4-{5-[6-(4-methylpyridin-2-ylamino)pyridin-2-yl]thiazol-2-yl}piperidin-1-yl)-3-oxopropionic acid hydrochloride]	> 7.00	< 6.00	
Cc1ccnc(Nc2cccc(-c3cnc([C@H](C)NC(=O)C(C)C)s3)n2)c1 [Compound A-31]	6.00 to 7.00	6.00 to 7.00	
CC(=O)N[C@@H](C)c1nc(C(C)=O)c(-c2cccc(Nc3cc(C)ccn3)n2)s1 [Compound A-126]	< 6.00	< 6.00	
Cc1ccnc(Nc2cccc(-c3cnc(CC(C)(C)NS(C)(=O)=O)s3)n2)c1 [Compound A-337, N-(1,1-dimethyl-2-{5-[6-(4-methylpyridin-2-ylamino)pyridin-2-yl]-thiazol-2-yl}ethyl)methanesulfonamide]	> 7.00	> 7.00	
COc1ccnc(Nc2cccc(-c3ccc(C(C)=O)s3)n2)c1 [Compound B-17, 1-{5-[6-(4-methoxypyridin-2-ylamino)pyridin-2-yl]thiophen-2-yl}ethanone]			pIC50 [1, 5]: > 7.00; pIC50 [2, 6]: 6.00 to 7.00
Cc1ccnc(Nc2cccc(-c3cnc(COCC(=O)N(C)C)s3)n2)c1 [Compound A-368]	6.00 to 7.00	6.00 to 7.00	
Cc1ccnc(Nc2cccc(-c3ccc(C=O)s3)n2)c1 [Compound B-2, 5-[6-(4-methylpyridin-2-ylamino)pyridin-2-yl]thiophene-2-carboxaldehyde]			pIC50 [1, 5]: > 7.00; pIC50 [2, 6]: < 6.00
Cc1ccnc(Nc2cccc(-c3ccc(C(=O)N4CCOCC4)s3)n2)c1 [Compound B-81]			pIC50 [1, 5]: 6.00 to 7.00; pIC50 [2, 6]: 6.00 to 7.00
CC(=O)Nc1ccc(CCc2ncc(-c3cccc(Nc4cc(C)ccn4)n3)s2)cc1 [Compound A-220]	6.00 to 7.00	6.00 to 7.00	
CC(=O)N[C@@H](CO)c1ncc(-c2cccc(Nc3cc(C)ccn3)n2)s1 [Compound A-59]	6.00 to 7.00	6.00 to 7.00	
Cc1ccnc(Nc2cccc(-c3cnc([C@@H](N)COCc4ccccc4)s3)n2)c1 [Compound A-44]	< 6.00	< 6.00	
Cc1ccnc(Nc2cccc(-c3ccc(C(=O)NCCN)s3)n2)c1 [Compound B-43, N-(2-aminoethyl)-5-[6-(4-methylpyridin-2-ylamino)pyridin-2-yl]thiophene-2-carboxamide]			pIC50 [1, 5]: > 7.00; pIC50 [2, 6]: < 6.00
Cc1ccnc(Nc2cccc(-c3cnc([C@H]4CC[C@H](CNC(=O)CO)CC4)s3)n2)c1 [Compound A-235, 2-hydroxy-N-(trans-4-{5-[6-(4-methylpyridin-2-ylamino)pyridin-2-yl]thiazol-2-yl}cyclohexylmethyl)acetamide]	> 7.00	6.00 to 7.00	
C[C@H](O)c1ncc(-c2cccc(Nc3cc(OCCO)ccn3)n2)s1 [Compound A-344, (S)-1-(5-{6-[4-(2-hydroxyethoxy)pyridin-2-ylamino]pyridin-2-yl}thiazol-2-yl)ethanol]	> 7.00	> 7.00	
